{"source": "paper PMC10436260", "about": "“Thiazolide Prodrug Esters and Derived Peptides: Synthesis and Activity” (ACS Bio & Med Chem Au, 2023)", "key": {"[1]": {"assay": "clearance in rat hepatocytes (RH)", "format": "in vitro ADME", "from_the_text": "Table 1 Summarized DMPK and Antiviral Data for Thiazolides and Derived Peptides | column: clearance RH μL/min/10^6 cells"}, "[2]": {"tested_on": "influenza A virus (IAV) strain A/PuertoRico/8/1934(H1N1) (PR8)", "assay": "microbe, parasite or virus in culture", "format": "cell-based"}, "[3]": {"assay": "physchem", "format": "physicochemical", "from_the_text": "Table 1 Summarized DMPK and Antiviral Data for Thiazolides and Derived Peptides | column: log P"}, "[4]": {"assay": "cell viability by MTT assay in mock-infected cells", "format": "cell-based, canine", "conditions": "dog; mock-infected MDCK cells, MTT, 24 h; read-out: CC50 (50% cytotoxic concentration)", "experimental": "(§1) Madin–Darby canine kidney (MDCK) cells (American Type Culture Collection, ATCC) were grown at 37 °C in a 5% CO2 atmosphere in an RPMI-1640 medium (LONZA-CAMBREX, Basel, Switzerland), supplemented with 10% fetal calf serum (FCS), 2 mM glutamine, and antibiotics. Tizoxanide (Romark Laboratories, L.C.) and derived peptides, dissolved in a dimethyl sulfoxide (DMSO) stock solution, were diluted in culture medium, added to infected cells after a one-hour virus adsorption period, and maintained in the medium for the duration of the experiment.\n(§2) Cell viability was determined by the 3-(4,5-dimethylthiazol-2-yl)-2,5-diphenyltetrazolium bromide (MTT) to MTT formazan conversion assay (Sigma-Aldrich), as described.[28],[29] The 50% cytotoxic dose (CC50) was calculated using Prism 5.0 software (Graph-Pad Software Inc.).[28]\n(§3) Confluent cell monolayers were mock-infected or infected with PR8 virus for 1 h at 37 °C at a multiplicity of infection (MOI) of 5 HAU (hemagglutinating units)/10^5 cells, as described.[30],[31] After the adsorption period, the viral inoculum was removed and cells were treated with different concentrations (0.1, 1, 5, 10, and 50 μg/mL) of each compound or vehicle and maintained at 37 °C in an RPMI-1640 medium containing 2% FCS for 24 h; in parallel, cell viability was determined in mock-infected cells by the MTT assay, as described above. Virus yield was determined 24 h post infection (p.i.) by HA titration, as described.[31] Compounds’ IC50 (50% inhibitory concentration) and IC90 (90% inhibitory concentration) were calculated using Prism 5.0 software."}, "[5]": {"assay": "physchem", "conditions": "pH 7.4"}, "[6]": {"assay": "in vitro", "format": "in vitro ADME", "conditions": "human, microsomes", "from_the_text": "Table 1 Summarized DMPK and Antiviral Data for Thiazolides and Derived Peptides | column: clearance HLM μL/min/mg"}, "[7]": {"tested_on": "Madin–Darby canine kidney (MDCK) cells", "assay": "cell viability by MTT assay in mock-infected cells", "format": "cell-based", "conditions": "antiviral assay conditions, MDCK cells", "experimental": "as §1, §2, §3"}, "[8]": {"format": "physicochemical", "conditions": "for stability of solutions: pH 5", "from_the_text": "We studied the aqueous stability further by NMR, Figures 1 and 2. […] In the case of valacyclovir, which we originally used as a model for 5a and 6, it was known that some hydrolysis occurred in vivo.[17] Clearly, at the 18 day time point [Figure 2g], the rearrangement and hydrolysis products accounted for ∼50% of the total analyte. In Figure 3, the aryl region is integrated and compared with the spectra of 5a, 3, and 8 (see below).\nFigure 2 Time-course ^1H NMR spectra of the aromatic region of 5a in d6-DMSO + 10%D2O. Evolution with time over an 18 day period at 298–313 K. The sample was held in an isothermal bath at a specified temperature between measurements. Spectra were recorded at the temperature stated in each case. (a) t = zero, 298 K; (b) t = 1 week, 308 K; (c) t = 8 days, 308 K; (d) t = 9 days, 308 K; (e) t = 11 days, 313 K; (f) t = 14 days, 313 K; (g) t = 18 days, 313 K.\nFigure 3 Assignment and integration of the final time-point spectrum."}, "[9]": {"conditions": "rat, in vivo, po; cited from earlier work"}, "[10]": {"conditions": "CC50 (MDCK) / IC50 (influenza A)"}, "[11]": {"conditions": "Influenza A virus, MDCK, 24 h; read-out: IC50 (50% inhibitory concentration)"}, "[12]": {"conditions": "Influenza A virus, MDCK, 24 h; read-out: IC90 (90% inhibitory concentration)"}}, "note": "Entries after “also recorded” stand apart in the source; their conditions may differ. Where two headings read alike, the source gives them in different places."}
{"compound": "CC(C)[C@H](NC(=O)c1ccccc1O)C(=O)Nc1ncc([N+](=O)[O-])s1", "note": "[compound 21, (S)-2-Hydroxy-N-(3-methyl-1-((5-nitrothiazol-2-yl)amino)-1-oxobutan-2-yl)benzamide]", "values": [{"measurement": "hepatocyte CLint", "setting": "[1]", "result": 67.7, "unit": "µL/min/1e6 cells"}, {"measurement": "SI, selectivity index, CC50/IC50", "setting": "[2]; [10]", "result": ">10"}, {"measurement": "IC50", "setting": "[2]; [11]", "result": 13.7, "unit": "µM"}, {"measurement": "IC90", "setting": "[2]; [12]", "result": "> 137", "unit": "µM"}, {"measurement": "antiviral activity in words", "setting": "[2]; influenza A virus assay", "result": "considerably less active"}, {"measurement": "logP", "setting": "[3]", "result": 2.9}, {"measurement": "CC50 at 24 h", "setting": "[4]", "result": "> 137", "unit": "µM"}, {"measurement": "solubility", "setting": "[5]", "result": "> 1000", "unit": "µM"}, {"measurement": "microsomal CLint", "setting": "[6]", "result": 55.9, "unit": "µL/min/mg"}]}
{"compound": "O=C(Nc1ncc([N+](=O)[O-])s1)c1ccccc1O", "note": "[compound 3, Tizoxanide, reference compound]", "values": [{"measurement": "hepatocyte CLint", "setting": "[1]", "result": 244, "unit": "µL/min/1e6 cells"}, {"measurement": "SI, selectivity index, CC50/IC50", "setting": "[2]; [10]", "result": ">82"}, {"measurement": "IC50", "setting": "[2]; [11]", "result": 2.3, "unit": "µM"}, {"measurement": "IC90", "setting": "[2]; [12]", "result": 26.4, "unit": "µM"}, {"measurement": "logP", "setting": "[3]", "result": 1.8}, {"measurement": "CC50 at 24 h", "setting": "[4]", "result": "> 189", "unit": "µM"}, {"measurement": "solubility", "setting": "[5]", "result": 33, "unit": "µM"}, {"measurement": "microsomal CLint", "setting": "[6]", "result": 50.2, "unit": "µL/min/mg"}]}
{"compound": "CC(C)(C)[C@H](NC(=O)c1ccccc1O)C(=O)Nc1ncc(Cl)s1", "note": "[compound 20, (S)-N-(3,3-Dimethyl-1-((5-chlorothiazol-2-yl)amino)-1-oxobutan-2-yl)-2-hydroxybenzamide]", "values": [{"measurement": "hepatocyte CLint", "setting": "[1]", "result": 75.4, "unit": "µL/min/1e6 cells"}, {"measurement": "IC50", "setting": "[2]; [11]", "result": "> 40.8", "unit": "µM"}, {"measurement": "IC90", "setting": "[2]; [12]", "result": "> 40.8", "unit": "µM"}, {"measurement": "antiviral activity in words", "setting": "[2]; influenza A virus assay", "result": "essentially inactive; also recorded: virtually inactive"}, {"measurement": "logP", "setting": "[3]", "result": "> 3.5"}, {"measurement": "CC50 at 24 h", "setting": "[4]", "result": 40.8, "unit": "µM"}, {"measurement": "toxicity under the assay conditions in words", "setting": "[7]", "result": "appeared toxic"}, {"measurement": "solubility", "setting": "[5]", "result": 388, "unit": "µM"}, {"measurement": "microsomal CLint", "setting": "[6]", "result": 42.4, "unit": "µL/min/mg"}]}
{"compound": "CC(C)(C)[C@H](N)C(=O)Oc1ccccc1C(=O)Nc1ncc([N+](=O)[O-])s1", "note": "[5a]", "values": [{"measurement": "stability on storage", "setting": "[8]", "result": "stable for months"}, {"measurement": "rearrangement and hydrolysis products as share of total analyte / loss of 5a", "setting": "[8]; d6-DMSO + 10% D2O, 298–313 K, 18 day time point, 1H NMR integration", "result": "~50", "unit": "%"}, {"measurement": "antiviral activity in words", "setting": "[2]; influenza A virus assay", "result": "activity is equivalent to 3"}, {"measurement": "absolute bioavailability", "setting": "[9]", "result": "20–25%"}]}
{"compound": "CC(C)(C)[C@H](N)C(=O)Oc1ccccc1C(=O)Nc1ncc([N+](=O)[O-])s1.CS(=O)(=O)O", "note": "[5c, (S)-3,3-Dimethyl-1-(2-((5-nitrothiazol-2-yl)carbamoyl)phenoxy)-1-oxobutan-2-aminium Methanesulfonate]", "values": [{"measurement": "stability of solutions", "setting": "[8]", "result": "unstable"}]}
{"compound": "CC(C)(C)[C@H](N)C(=O)Oc1ccccc1C(=O)Nc1ncc(Cl)s1", "note": "[compound 6]", "values": [{"measurement": "stability on storage", "setting": "[8]", "result": "stable for months"}, {"measurement": "absolute bioavailability", "setting": "[9]", "result": "20–25%"}]}
{"compound": "CC(C)[C@H](NC(=O)c1ccccc1O)C(=O)Nc1ncc(Cl)s1", "note": "[compound 22, (S)-2-Hydroxy-N-(3-methyl-1-((5-chlorothiazol-2-yl)amino)-1-oxobutan-2-yl)benzamide]", "values": [{"measurement": "hepatocyte CLint", "setting": "[1]", "result": 234, "unit": "µL/min/1e6 cells"}, {"measurement": "IC50", "setting": "[2]; [11]", "result": "> 42.4", "unit": "µM"}, {"measurement": "IC90", "setting": "[2]; [12]", "result": "> 42.4", "unit": "µM"}, {"measurement": "antiviral activity in words", "setting": "[2]; influenza A virus assay", "result": "essentially inactive; also recorded: virtually inactive"}, {"measurement": "CC50 at 24 h", "setting": "[4]", "result": 42.4, "unit": "µM"}, {"measurement": "toxicity under the assay conditions in words", "setting": "[7]", "result": "appeared toxic"}, {"measurement": "solubility", "setting": "[5]", "result": 82, "unit": "µM"}, {"measurement": "microsomal CLint", "setting": "[6]", "result": 42.7, "unit": "µL/min/mg"}]}
{"compound": "CC(C)(C)[C@H](N)C(=O)Oc1ccccc1C(=O)Nc1ncc([N+](=O)[O-])s1.Cc1ccc(S(=O)(=O)O)cc1", "note": "[5b, (S)-3,3-Dimethyl-1-(2-((5-nitrothiazol-2-yl)carbamoyl)phenoxy)-1-oxobutan-2-aminium 4-methylbenzenesulfonate]", "values": [{"measurement": "stability of solutions", "setting": "[8]", "result": "unstable"}]}
{"compound": "CC(C)(C)[C@H](NC(=O)c1ccccc1O)C(=O)Nc1ncc([N+](=O)[O-])s1", "note": "[compound 8, (S)-N-(3,3-Dimethyl-1-((5-nitrothiazol-2-yl)amino)-1-oxobutan-2-yl)-2-hydroxybenzamide]", "values": [{"measurement": "hepatocyte CLint", "setting": "[1]", "result": 31.5, "unit": "µL/min/1e6 cells"}, {"measurement": "SI, selectivity index, CC50/IC50", "setting": "[2]; [10]", "result": ">83"}, {"measurement": "IC50", "setting": "[2]; [11]", "result": 1.6, "unit": "µM"}, {"measurement": "IC90", "setting": "[2]; [12]", "result": 79, "unit": "µM"}, {"measurement": "antiviral activity in words", "setting": "[2]; influenza A virus assay", "result": "retains good activity"}, {"measurement": "logP", "setting": "[3]", "result": 3.3}, {"measurement": "CC50 at 24 h", "setting": "[4]", "result": "> 132", "unit": "µM"}, {"measurement": "solubility", "setting": "[5]", "result": 18, "unit": "µM"}, {"measurement": "microsomal CLint", "setting": "[6]", "result": 36.5, "unit": "µL/min/mg"}]}
{"compound": "O=C(Nc1ncc(Cl)s1)c1ccccc1O", "note": "[compound 4, reference compound]", "values": [{"measurement": "hepatocyte CLint", "setting": "[1]", "result": "> 300", "unit": "µL/min/1e6 cells"}, {"measurement": "SI, selectivity index, CC50/IC50", "setting": "[2]", "result": ">50"}, {"measurement": "IC50", "setting": "[2]; Influenza A virus, MDCK, 24 h, read-out: IC50 (50% inhibitory concentration)", "result": 3.9, "unit": "µM"}, {"measurement": "IC90", "setting": "[2]; Influenza A virus, MDCK, 24 h, read-out: IC90 (90% inhibitory concentration)", "result": 19.6, "unit": "µM"}, {"measurement": "logP", "setting": "[3]", "result": 2.9}, {"measurement": "CC50 at 24 h", "setting": "[4]", "result": "> 196", "unit": "µM"}, {"measurement": "solubility", "setting": "[5]", "result": 48, "unit": "µM"}, {"measurement": "microsomal CLint", "setting": "[6]", "result": 37.5, "unit": "µL/min/mg"}]}
